Reference: patent publication US8389739B1, “Modulators of retinoid-related orphan receptor gamma” (Orphagen Pharmaceuticals, priority 2006, dated 2013)

What was measured:
hPPARδ = target: T1, hPPARδ (Homo sapiens, UniProt Q03181); experiment: Crossreactive receptor transcriptional assay (Gal4 hybrid); type: cell-based
T1 construct: 138-441; expressed in transfected cells; host or cells: CHO cells, transient transfection
T1 sequence (Q03181 138-441): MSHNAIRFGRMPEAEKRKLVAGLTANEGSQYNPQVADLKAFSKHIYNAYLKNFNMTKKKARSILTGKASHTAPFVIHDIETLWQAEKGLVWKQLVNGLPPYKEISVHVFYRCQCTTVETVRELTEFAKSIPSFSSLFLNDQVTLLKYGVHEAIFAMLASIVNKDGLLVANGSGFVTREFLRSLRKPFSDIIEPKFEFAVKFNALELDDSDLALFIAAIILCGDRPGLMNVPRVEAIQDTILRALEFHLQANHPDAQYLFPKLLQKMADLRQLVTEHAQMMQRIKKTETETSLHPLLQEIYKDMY
Method: A firefly luciferase reporter gene for Gal4 DBD hybrid receptors, such as Gal4-RORγ, contains five copies of the Gal4 17-mer response element in its promoter and the coding sequence for firefly luciferase (pG5-luc, Promega). CHO (Chinese Hamster Ovary) cells were cultured in Ham's F12 medium supplemented with 10% fetal calf serum (Gemini Biologicals), 10 μg/ml penicillin and streptomycin, and were maintained in a humidified 37° C. incubator (Thermo Electron, Steri-Cycle) with 5% CO2. 24 hours before transfection, cells were plated in T175 flasks (5×10^6 cells/flask) or T75 flasks (1.7×10^6 cells/flask). Transient transfection of CHO cells was performed using TransIT-CHO reagents (Minis, Madison, Wis.) with a mixing ratio of 2:6:1 between plasmid DNA (in μg), TransIT-CHO (in μl) and CHO-mojo (in μl).
Plates are maintained at 37° C. in a humidified atmosphere with 7% CO2 overnight. Four (4) hours after cell seeding, compounds dissolved in DMSO at 10 mM were added to cells at final concentrations of 20 micromolar (μM) to 20 nanomolar (nM) in 0.2% DMSO in triplicate plates. Approximately 40 hours later, cytotoxicity in the assay well was characterized by addition of the dye resazurin (O'Brien, Wilson et al. 2000) to a final concentration of 3 μM. […] Percent viability was determined as 2 hour fluorescence, minus background at t=0 hours, normalized to DMSO controls. For detection of luciferase activity, media was removed from plates after the measurement of resazurin conversion, and SteadyLite luciferase reagent (Perkin-Elmer) was added (30 μl/well). Luminescence is detected with a Victor 2-V plate reader (Perkin-Elmer) and normalized to luciferase activity of DMSO control wells alone.

liver triglycerides = experiment: Liver triglycerides after oral dosing in C57BL/6 mice; type: in vivo; details: Dex 12.5 mg/kg once 2 days before necropsy
Method: […] A small piece of the liver (˜200 mg) was weighed and extracted to determine triglyceride content. Glycerol was liberated from liver triglycerides by hydrolysis in base. The liver fragment was incubated overnight at 55° C. in 0.35 mls of ethanolic KOH (2 parts EtOH: 1 part 30% KOH) in a closed tube. A solution of 50% ethanol in water was added to bring the volume of each tube to 1.0 ml. The solution was cleared of debris by centrifugation, and the resulting supernatant increased to 1.2 ml with further addition of 50% ethanol. Aqueous 1 M MgCl2 (215 μl) was added to 200 μl of the supernatant, and the mixture was cleared by centrifugation again after standing 10 min on ice. Glycerol levels were measured with the Sigma Free Glycerol Reagent (Sigma-Aldrich, St. Louis, Mo.) according to the manufacturer's instructions. The triglyceride concentration (in milligrams per gram of liver wet weight) was determined by assuming average molecular weight of 1000 daltons for each molecule of triglyceride.

thymocytes = experiment: Thymus weight and thymocyte subpopulations after oral dosing in C57BL/6 mice; type: in vivo
Method: In addition, the total number and the fraction of the major thymocyte subpopulations including CD4^+CD8^+ (DP), CD4^+CD8^- (SP4^+) and CD4^-CD8^+ (SP8^+) were measured by cell surface staining followed by FACS analysis. […] The volume of cells was adjusted to 8 mls. Debris from the thymus was allowed to settle, and a 200 μl aliquot of cells was incubated with fluorescent antibodies to CD4 and CD8 for 15 minutes at room temperature. […] Before analytical flow cytometry was carried out (FACS Calibur, Becton Dickinson), Caltag counting beads (from Invitrogen) were added to allow absolute quantitation of cell number. Thymus subpopulations were determined after gating for live cells. […] Dexamethasone reproducibly induces rapid apoptosis of DP thymocytes and reduction of thymic mass ([…], Drupt et al. 2000; Zubkova, Mostowski et al. 2005).

[1] = tested on: TH1 cell differentiation from naïve CD4+ T cells; experiment: Differentiation of naïve CD4+ T cells with IL-12 (Th-1 protocol), IFN-γ staining by FACS; type: cell-based, mouse; details: Table 8; 10 ng/ml; naïve CD4 cells, 5 days; mean ±SD; no cytokine 0.21
[2] = Dex 12.5 mg/kg once 2 days before necropsy

Molecule: CC(C)(Oc1ccc(CCNC(=O)c2ccc(Cl)cc2)cc1)C(=O)O [Bezafibrate, bezafibrate, reference compound]
- EC50 (hPPARδ): > 20 µM

Molecule: C[C@@H]1C[C@H]2[C@@H]3CCC4=CC(=O)C=C[C@]4(C)[C@@]3(F)[C@@H](O)C[C@]2(C)[C@@]1(O)C(=O)CO [Dexamethasone, dexamethasone]
- Liver triglycerides (liver triglycerides): 35.3 ± 8.2 mg/g
- Frequency of DP (% of total cells) (thymocytes; [2]): 4.2 ± 2.9%
- Thymus weight (thymocytes; [2]): 49.7 µg
- Total cells per thymus (×10^−6) DP (thymocytes; [2]): 1.0 ×10^−6
- Total cells per thymus (×10^−6) SP4 (thymocytes; [2]): 3.9 ×10^−6
- Total cells per thymus (×10^−6) SP8 (thymocytes; [2]): 1.2 ×10^−6
- effect on DP thymocytes, in words (thymocytes; dexamethasone positive control, once two days before sacrifice): virtually total depletion of DP thymocytes

B1: IL-12: exogenous cytokine, stimulates TH1 differentiation (protein, UniProt P29459 23-219; P29460 23-328, looked up)
Interleukin-12 subunit alpha: RNLPVATPDPGMFPCLHHSQNLLRAVSNMLQKARQTLEFYPCTSEEIDHEDITKDKTSTVEACLPLELTKNESCLNSRETSFITNGSCLASRKTSFMMALCLSSIYEDLKMYQVEFKTMNAKLLMDPKRQIFLDQNMLAVIDELMQALNFNSETVPQKSSLEEPDFYKTKIKLCILLHAFRIRAVTIDRVMSYLNAS
Interleukin-12 subunit beta: IWELKKDVYVVELDWYPDAPGEMVVLTCDTPEEDGITWTLDQSSEVLGSGKTLTIQVKEFGDAGQYTCHKGGEVLSHSLLLLHKKEDGIWSTDILKDQKEPKNKTFLRCEAKNYSGRFTCWWLTTISTDLTFSVKSSRGSSDPQGVTCGAATLSAERVRGDNKEYEYSVECQEDSACPAAEESLPIEVMVDAVHKLKYENYTSSFFIRDIIKPDPPKNLQLKPLKNSRQVEVSWEYPDTWSTPHSYFSLTFCVQVQGKSKREKKDRVFTDKTSATVICRKNASISVRAQDRYYSSSWSEWASVPCS
- IL-17 (%) [1]: 0.09 ± 0.01%
